Tested on: 454973-116-R2-J3-PDC spheroids, viability, % test/control
Experiment: Anticancer human tumor 454973-116-R2-J3-PDC patient-derived pancreatic carcinoma cell line growth inhibition [GQUAD]
Conditions: spheroids with HUVEC and MSC; for IC50: curve of first compound; for viability, T/C: stronger effect = lower value
Procedure, shortened: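 Tumor cells were grown as complex spheroids with HUVEC endothelial cells and mesenchymal stem cells as stroma. G-quadruplex stabilizers were combined with targeted agents over half-log dilutions from near the clinical Cmax, or from 10 microM.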

[1] = second compound 0.0316 µM, first compound 0.0316 µM
[2] = second compound 0.0316 µM, first compound 0.1 µM
[3] = second compound 0.0316 µM, first compound 0.316 µM
[4] = second compound 0.0316 µM, first compound 1 µM
[5] = second compound 0.0316 µM, first compound 3.16 µM
[6] = second compound 0.0316 µM, first compound 10 µM
[7] = second compound 0.1 µM, first compound 0.0316 µM
[8] = second compound 0.1 µM, first compound 0.1 µM
[9] = second compound 0.1 µM, first compound 0.316 µM
[10] = second compound 0.1 µM, first compound 1 µM
[11] = second compound 0.1 µM, first compound 3.16 µM
[12] = second compound 0.1 µM, first compound 10 µM
[13] = second compound 0.316 µM, first compound 0.0316 µM
[14] = second compound 0.316 µM, first compound 0.1 µM
[15] = second compound 0.316 µM, first compound 0.316 µM
[16] = second compound 0.316 µM, first compound 1 µM
[17] = second compound 0.316 µM, first compound 3.16 µM
[18] = second compound 0.316 µM, first compound 10 µM
[19] = second compound 1 µM, first compound 0.0316 µM
[20] = second compound 1 µM, first compound 0.1 µM
[21] = second compound 1 µM, first compound 0.316 µM
[22] = second compound 1 µM, first compound 1 µM
[23] = second compound 1 µM, first compound 3.16 µM
[24] = second compound 1 µM, first compound 10 µM
[25] = second compound 3.16 µM, first compound 0.0316 µM
[26] = second compound 3.16 µM, first compound 0.1 µM
[27] = second compound 3.16 µM, first compound 0.316 µM
[28] = second compound 3.16 µM, first compound 1 µM
[29] = second compound 3.16 µM, first compound 3.16 µM
[30] = second compound 3.16 µM, first compound 10 µM
[31] = second compound 10 µM, first compound 0.0316 µM
[32] = second compound 10 µM, first compound 0.1 µM
[33] = second compound 10 µM, first compound 0.316 µM
[34] = second compound 10 µM, first compound 1 µM
[35] = second compound 10 µM, first compound 3.16 µM
[36] = second compound 10 µM, first compound 10 µM
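Note: spheroids exposed to compounds for seven days.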
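Throughout, for viability, T/C: 100% = DMSO vehicle control viability.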

C=CCn1c(=O)c2cnc(Nc3ccc(N4CCN(C)CC4)cc3)nc2n1-c1cccc(C(C)(C)O)n1 + Cc1[nH]c2ccc(F)cc2c1-c1nc2c3cccnc3c3ncccc3c2[nH]1 was tested, and the IC50 (second compound 0.0316 µM) was 0.364 µM, the IC50 (second compound 0.1 µM) was 0.478 µM and the IC50 (second compound 0.316 µM) was 0.401 µM. The IC50 (second compound 1 µM) was 0.433 µM, the IC50 (second compound 3.16 µM) was 0.335 µM and the IC50 (second compound 10 µM) was 0.339 µM. For the same compound, the viability, T/C [1] was 124%, the viability, T/C [2] was 92.8% and the viability, T/C [3] was 60.4%. It also gave a viability, T/C [4] of 15.3%, a viability, T/C [5] of 7.69% and a viability, T/C [6] of 10.2%. The viability, T/C [7] was 101%, the viability, T/C [8] was 95.5% and the viability, T/C [9] was 69.8%. For the same compound, the viability, T/C [10] was 15%, the viability, T/C [11] was 6.68% and the viability, T/C [12] was 11.6%. It also gave a viability, T/C [13] of 105%, a viability, T/C [14] of 99% and a viability, T/C [15] of 58.7%. For the same compound, the viability, T/C [16] was 16.7%, the viability, T/C [17] was 7.33% and the viability, T/C [18] was 12.1%. For the same compound, the viability, T/C [19] was 111%, the viability, T/C [20] was 96.2% and the viability, T/C [21] was 63.4%. For the same compound, the viability, T/C [22] was 18.3%, the viability, T/C [23] was 6.95% and the viability, T/C [24] was 12.4%. It also gave a viability, T/C [25] of 101%, a viability, T/C [26] of 98.6% and a viability, T/C [27] of 51.8%. The viability, T/C [28] was 14.2%, the viability, T/C [29] was 7.78% and the viability, T/C [30] was 12.1%. It also gave a viability, T/C [31] of 100%, a viability, T/C [32] of 78.4% and a viability, T/C [33] of 57.6%. It also gave a viability, T/C [34] of 14.1%, a viability, T/C [35] of 7.95% and a viability, T/C [36] of 12.3%.
Work on CC(C)(O)C1CCC(Nc2ccc3ncc(-c4cccc(C(F)(F)F)c4)n3n2)CC1 (stereo unspecified) + Cc1[nH]c2ccc(F)cc2c1-c1nc2c3cccnc3c3ncccc3c2[nH]1 yielded an IC50 (second compound 0.0316 µM) of 1.86 µM, an IC50 (second compound 0.1 µM) of 1.87 µM and an IC50 (second compound 0.316 µM) of 1.84 µM. For the same compound, the IC50 (second compound 1 µM) was 1.58 µM, the IC50 (second compound 3.16 µM) was 1.63 µM and the IC50 (second compound 10 µM) was 1.39 µM. For the same compound, the viability, T/C [1] was 112%, the viability, T/C [2] was 97.4% and the viability, T/C [3] was 96.6%. For the same compound, the viability, T/C [4] was 76.8%, the viability, T/C [5] was 21.8% and the viability, T/C [6] was 32.2%. For the same compound, the viability, T/C [7] was 108%, the viability, T/C [8] was 100% and the viability, T/C [9] was 92.1%. It also gave a viability, T/C [10] of 78.1%, a viability, T/C [11] of 23.1% and a viability, T/C [12] of 29.8%. It also gave a viability, T/C [13] of 102%, a viability, T/C [14] of 98.1% and a viability, T/C [15] of 105%. It also gave a viability, T/C [16] of 78.4%, a viability, T/C [17] of 18.3% and a viability, T/C [18] of 31.6%. The viability, T/C [19] was 98.2%, the viability, T/C [20] was 95.6% and the viability, T/C [21] was 95.5%. It also gave a viability, T/C [22] of 67.1%, a viability, T/C [23] of 23.8% and a viability, T/C [24] of 22.8%. For the same compound, the viability, T/C [25] was 95.1%, the viability, T/C [26] was 98.8% and the viability, T/C [27] was 90.9%. For the same compound, the viability, T/C [28] was 67.3%, the viability, T/C [29] was 21.4% and the viability, T/C [30] was 31.4%. For the same compound, the viability, T/C [31] was 87.6%, the viability, T/C [32] was 81.3% and the viability, T/C [33] was 89%. The viability, T/C [34] was 59.6%, the viability, T/C [35] was 21.7% and the viability, T/C [36] was 30.7%.
For COc1ncnc(C2CC2)c1-c1ncc2cnn(Cc3ccc(-c4nc(C(F)(F)F)cn4C(C)C)cc3)c2n1 + Cc1[nH]c2ccc(F)cc2c1-c1nc2c3cccnc3c3ncccc3c2[nH]1, the IC50 (second compound 0.0316 µM) was over 10 µM, the IC50 (second compound 0.1 µM) was over 10 µM and the IC50 (second compound 0.316 µM) was over 10 µM. The IC50 (second compound 1 µM) was over 10 µM, the IC50 (second compound 3.16 µM) was over 10 µM and the IC50 (second compound 10 µM) was over 10 µM. It also gave a viability, T/C [1] of 112%, a viability, T/C [2] of 100% and a viability, T/C [3] of 110%. For the same compound, the viability, T/C [4] was 110%, the viability, T/C [5] was 96% and the viability, T/C [6] was 102%. The viability, T/C [7] was 126%, the viability, T/C [8] was 102% and the viability, T/C [9] was 107%. It also gave a viability, T/C [10] of 105%, a viability, T/C [11] of 92.9% and a viability, T/C [12] of 100%. The viability, T/C [13] was 109%, the viability, T/C [14] was 111% and the viability, T/C [15] was 106%. It also gave a viability, T/C [16] of 120%, a viability, T/C [17] of 105% and a viability, T/C [18] of 98.6%. It also gave a viability, T/C [19] of 103%, a viability, T/C [20] of 99.3% and a viability, T/C [21] of 105%. For the same compound, the viability, T/C [22] was 106%, the viability, T/C [23] was 92.3% and the viability, T/C [24] was 98.9%. It also gave a viability, T/C [25] of 99.2%, a viability, T/C [26] of 97.3% and a viability, T/C [27] of 99.4%. It also gave a viability, T/C [28] of 91.5%, a viability, T/C [29] of 96.9% and a viability, T/C [30] of 89.8%. For the same compound, the viability, T/C [31] was 102%, the viability, T/C [32] was 92.9% and the viability, T/C [33] was 96.7%. The viability, T/C [34] was 86.8%, the viability, T/C [35] was 83.5% and the viability, T/C [36] was 95.1%.

Reference: PubChem BioAssay AID2060508 (Molecular Pharmacology Branch, DTP, NCI, 2025)
